For assay [1], the system named is 2a HCV RNA replicon. Description: 2a HCV RNA replicon assay (FL-J6/JFH-5'C19Rluc2AUbi, luciferase). It is filed as cell-based, Hepatitis C Virus genotype 2a. Particulars: full-length J6/JFH Luc, luciferase at 72 hr of treatment. A digest of the protocol:
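Huh7.5 cells electroporated with in vitro-transcribed FL-J6/JFH-5′C19Rluc2AUbi RNA (full-length genotype 2a, Renilla luciferase) and treated from 24 h, with compound refreshed daily for 72 h. Replication measured as Renilla luminescence, normalized to untreated or matched-DMSO samples. Alamar Blue fluorescence on the same wells assessed cytotoxicity.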

In assay [2] the target is T1, 4BAH2 peptide (Hepatitis C virus genotype 1b, UniProt Q9WMX2).
T1 construct: purchased Anaspec Corporation (San Jose, Calif., USA); host or cells: chemical synthesis
T1 sequence (Q9WMX2 1754-1776): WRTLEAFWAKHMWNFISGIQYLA
Description: AFM of 4BAH2 peptide oligomerization on SiOx substrate. The format is biochemical. How it is done: Atomic Force Microscopy. The AFM experiments were carried out on a XE-Bio (Park Systems Suwon, Korea) in contact and non-contact modes. Rectangular-shaped silicon cantilevers were used (SICON for contact mode and ACT for non-contact mode, AppNano, Santa Clara, Calif.). […] All measurements were performed in a PBS buffer. Images in fluid were obtained both in contact mode with an imaging force of less than 200 pN and in noncontact mode. However, images presented in this manuscript were only obtained in non-contact mode in fluid. The scan line speed was optimized between 0.3 Hz to 1 Hz with a pixel number of 256×256, depending on the scan size. Images were recorded in height, amplitude, phase, and error modes. All measurements were done on the height images. All images shown were subjected to a first order plane-fitting procedure to compensate for sample tilt. The cross-sectional analysis was carried out on images subjected only to a first order plane-fitting procedure. Topographical and grain analyses were performed using the software XEI 1.7.1 supplied by Park Systems (Suwon, Korea).

The target in assay [3] is genotype 2a 4BAH2 (Hepatitis C virus genotype 2a, UniProt Q99IB8). The assay can be described thus: DLS assay of 4BAH2-induced POPC lipid vesicle aggregation, genotype 2a peptide. Details: purchased Anaspec Corporation (San Jose, Calif., USA); host or cells: chemical synthesis. It is filed as biochemical. Particulars: POPC vesicles. The procedure: Small Unilamellar Vesicle Preparation. Vesicles of 1-palmitoyl-2-oleoyl-sn-glycero-3-phosphocholine (POPC) (Avanti Polar Lipids, Alabaster, Ala., USA) with well-defined size distributions were prepared by the extrusion method. Throughout the experiments, we used a phosphate buffered saline (PBS) buffer (10 mM, pH 7.5 and 150 mM NaCl) in […] MilliQ water (Millipore, Oregon, USA). Extruded vesicles (referred to simply as vesicles) were prepared in the following manner. Lipid films were prepared by first drying the as-supplied lipids dissolved in chloroform under a gentle stream of nitrogen at room temperature. Then the resulting lipid film was stored under vacuum for at least 5 hr in order to remove residual chloroform. Vesicles were prepared by first swelling the lipid film in aqueous solution then vortexing periodically for 5 min. […]
genotype 2a 4BAH2, sequence (Q99IB8 1758-1780): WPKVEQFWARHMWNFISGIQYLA
Dynamic Light Scattering. Dynamic light scattering (DLS) was performed using a doubled, Nd:YAG laser (model 532 DPSS, Coherent Laser Group, Santa Clara, Calif.) with a wavelength, λ, of […] and a Brookhaven digital autocorrelator, and analyzed by digital autocorrelator software (Brookhaven Instruments Corporation, New York, USA). […] DLS results were analyzed to give an intensity-weighted size distribution using a discrete Laplace inversion routine. […]

The results in this text go back to patent US20110217265A1, “Screening for Inhibitors of HCV Amphipathic Helix (AH) Function” (priority 2008, published 2011).

The structures appear in SMILES notation.

Regarding `CC(C)CN(C)c1nc(N)c(C(=O)NC(=N)N)nc1Cl` [C4, 3-amino-N-carbamimidoyl-6-chloro-5-(isobutyl(methyl)amino)pyrazine-2-carboxamide], the “Inhibition of HCV genotype 2a viral genome replication” value in assay [1] is “exhibited inhibition”. Also, the “Effect on 4BAH2 peptide aggregation / self-oligomerization (AFM)” value in assay [2] is reported as “inhibit peptide aggregation”. Besides, in assay [3], the “Inhibition of genotype 2a 4BAH2-induced vesicle aggregation (DLS)” value is listed as “essentially abrogated”.
